Data on 24 compounds can be found in patent publication US10626112B2, “Heterocyclic sulfonamide derivative and medicine comprising same” (EA PHARMA CO., LTD., priority 2014, dated 2020).

Structures are written as SMILES.

Sequence of human TRPA1 (O75762 whole entry): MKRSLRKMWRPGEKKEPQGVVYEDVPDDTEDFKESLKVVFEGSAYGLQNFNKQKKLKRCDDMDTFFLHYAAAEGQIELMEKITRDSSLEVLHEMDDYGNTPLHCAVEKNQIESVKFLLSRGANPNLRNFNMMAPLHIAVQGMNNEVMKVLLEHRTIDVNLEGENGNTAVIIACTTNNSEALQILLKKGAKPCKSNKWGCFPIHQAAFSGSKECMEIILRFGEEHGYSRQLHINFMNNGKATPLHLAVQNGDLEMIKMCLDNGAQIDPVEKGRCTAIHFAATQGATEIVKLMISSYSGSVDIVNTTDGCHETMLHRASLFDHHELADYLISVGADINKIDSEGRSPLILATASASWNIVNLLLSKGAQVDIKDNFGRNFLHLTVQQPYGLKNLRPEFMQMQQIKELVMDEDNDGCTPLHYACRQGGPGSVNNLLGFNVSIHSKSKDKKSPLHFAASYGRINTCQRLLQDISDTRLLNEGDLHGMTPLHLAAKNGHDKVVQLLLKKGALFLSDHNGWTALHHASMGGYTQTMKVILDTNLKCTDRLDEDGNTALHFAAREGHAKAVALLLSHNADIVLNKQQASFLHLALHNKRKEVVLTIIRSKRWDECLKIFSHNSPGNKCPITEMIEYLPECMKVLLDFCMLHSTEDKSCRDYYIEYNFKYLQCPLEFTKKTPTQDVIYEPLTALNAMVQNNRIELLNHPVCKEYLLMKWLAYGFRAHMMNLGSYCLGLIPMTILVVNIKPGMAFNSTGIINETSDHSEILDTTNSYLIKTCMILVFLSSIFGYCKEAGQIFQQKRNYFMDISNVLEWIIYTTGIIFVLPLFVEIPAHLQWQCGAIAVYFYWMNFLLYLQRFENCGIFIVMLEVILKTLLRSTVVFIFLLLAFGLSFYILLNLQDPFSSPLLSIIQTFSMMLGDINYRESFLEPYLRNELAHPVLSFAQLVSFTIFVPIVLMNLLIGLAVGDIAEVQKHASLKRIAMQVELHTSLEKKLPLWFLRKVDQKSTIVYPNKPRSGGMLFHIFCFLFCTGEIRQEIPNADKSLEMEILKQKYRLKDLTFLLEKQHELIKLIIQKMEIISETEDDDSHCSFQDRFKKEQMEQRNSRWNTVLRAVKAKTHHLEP

This experiment has as its target human TRPA1 (Homo sapiens (Human), UniProt O75762). The experiment in a line: Measurement of TRPA1 antagonist activity (1): intracellular calcium increase. Type of experiment: cell-based. The note with it: 293T cells transfected with human TRPA1 expression plasmid; allylisothiocyanate 20 μM stimulation; intracellular calcium fluorescence; read-out: hTRPA1 IC50. In outline: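 Calcium-flux readout of TRPA1 block: compound given 10 min before 20 μM (final) allylisothiocyanate, fluorescence tracked 5 min. Cells were 293T transiently expressing human TRPA1, dye-loaded 1 hr in HBSS, 20 mM HEPES, pH 7.2. Inhibition scaled between agonist-only and buffer-only responses; IC50 by sigmoid fitting.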
In general terms: Calcium flux is commonly read through the fluorescence of an indicator in the cells.
The term IC50 denotes the point on the concentration scale where inhibition reaches its midpoint. As for `O=C(NCc1ccc(COc2ccccc2)cc1)[C@@H]1CCCN1S(=O)(=O)c1cc2ccccc2o1` [Example 58, (2S)-1-(benzofuran-2-ylsulfonyl)-N-[[4-(phenoxymethyl)phenyl]methyl]-pyrrolidine-2-carboxamide], the IC50 was determined as 430 nM. As for `O=C(NCc1cccc(F)c1)[C@@H]1CCCN1S(=O)(=O)c1cc2ccccc2o1` [Example 59, (2S)-1-(benzofuran-2-ylsulfonyl)-N-[(3-fluorophenyl)methyl]pyrrolidine-2-carboxamide], the figure is 540 nM; as for `O=C(NCc1cccc(Cl)c1)[C@@H]1CCCN1S(=O)(=O)c1cc2ccccc2o1` [Example 60, (2S)-1-(benzofuran-2-ylsulfonyl)-N-[(3-chlorophenyl)methyl]pyrrolidine-2-carboxamide], 200 nM; as for `O=C(NCc1cccc(C(F)(F)F)c1)[C@@H]1CCCN1S(=O)(=O)c1cc2ccccc2o1` [Example 61, (2S)-1-(benzofuran-2-ylsulfonyl)-N-[[3-(trifluoromethyl)phenyl]methyl]-pyrrolidine-2-carboxamide], 55 nM. As for `O=C(NCc1cccc(OC(F)(F)F)c1)[C@@H]1CCCN1S(=O)(=O)c1cc2ccccc2o1` [Example 62, (2S)-1-(benzofuran-2-ylsulfonyl)-N-[[3-(trifluoromethoxy)phenyl]methyl]-pyrrolidine-2-carboxamide], the figure is 60 nM; as for `O=C(NCc1ccc(OC(F)(F)F)cc1)[C@@H]1CCCN1S(=O)(=O)c1cc2ccccc2o1` [Example 63, (2S)-1-(benzofuran-2-ylsulfonyl)-N-[[4-(trifluoromethoxy)phenyl]methyl]-pyrrolidine-2-carboxamide], 60 nM; as for `O=C(NCc1ccccc1OC(F)(F)F)[C@@H]1CCCN1S(=O)(=O)c1cc2ccccc2o1` [Example 64, (2S)-1-(benzofuran-2-ylsulfonyl)-N-[[2-(trifluoromethoxy)phenyl]methyl]-pyrrolidine-2-carboxamide], 100 nM. As for `O=C(NCc1cccc(OC(F)(F)F)c1)[C@@H]1CCCN1S(=O)(=O)c1cc2cc(F)ccc2o1` [Example 65, (2S)-1-(5-fluorobenzofuran-2-yl)sulfonyl-N-[[3-(trifluoromethoxy)phenyl]methyl]-pyrrolidine-2-carboxamide], the figure is 15 nM. With `O=C(NCc1ccc(OC(F)(F)F)cc1)[C@@H]1CCCN1S(=O)(=O)c1cc2cc(F)ccc2o1` [Example 66, (2S)-1-(5-fluorobenzofuran-2-yl)sulfonyl-N-[[4-(trifluoromethoxy)phenyl]methyl]-pyrrolidine-2-carboxamide], the IC50 was determined as 21 nM. As for `O=C(NCc1cc(C(F)(F)F)ccc1Cl)[C@@H]1CCCN1S(=O)(=O)c1cc2ccccc2o1` [Example 67, (2S)-1-(benzofuran-2-ylsulfonyl)-N-[[2-chloro-5-(trifluoromethyl)phenyl]methyl]-pyrrolidine-2-carboxamide], the figure is 9.7 nM. Regarding `COc1c(F)ccc(CNC(=O)[C@@H]2CCCN2S(=O)(=O)c2cc3ccccc3o2)c1F` [Example 68, (2S)-1-(benzofuran-2-ylsulfonyl)-N-[(2,4-difluoro-3-methoxy-phenyl)methyl]pyrrolidine-2-carboxamide], the IC50 turned out to be 390 nM. As for `O=C(NCc1ccc(OC(F)(F)F)c(F)c1)[C@@H]1CCCN1S(=O)(=O)c1cc2cc(F)ccc2o1` [Example 69, (2S)-1-(5-fluorobenzofuran-2-yl)sulfonyl-N-[[3-fluoro-4-(trifluoromethoxy)phenyl]methyl]-pyrrolidine-2-carboxamide], the figure is 12 nM; as for `O=C(NCc1ccc(F)c(OC(F)(F)F)c1)[C@@H]1CCCN1S(=O)(=O)c1cc2cc(F)ccc2o1` [Example 70, (2S)-1-(5-fluorobenzofuran-2-yl)sulfonyl-N-[[4-fluoro-3-(trifluoromethoxy)phenyl]methyl]-pyrrolidine-2-carboxamide], 11 nM. As for `O=C(NCc1cc(OC(F)(F)F)ccc1F)[C@@H]1CCCN1S(=O)(=O)c1cc2cc(F)ccc2o1` [Example 71, (2S)-1-(5-fluorobenzofuran-2-yl)sulfonyl-N-[[2-fluoro-5-(trifluoromethoxy)phenyl]methyl]-pyrrolidine-2-carboxamide], the figure is 3.2 nM; as for `C[C@H](NS(=O)(=O)c1cc2ccccc2o1)C(=O)NCc1cc(C(F)(F)F)ccc1Cl` [Example 72, (2S)-2-(benzofuran-2-ylsulfonylamino)-N-[[2-chloro-5-(trifluoromethyl)phenyl]methyl]-propanamide], 350 nM.

With `C[C@H](NS(=O)(=O)c1cc2cc(F)ccc2o1)C(=O)NCc1cc(OC(F)(F)F)ccc1F` [Example 73, (2S)-2-[(5-fluorobenzofuran-2-yl)sulfonylamino]-N-[[2-fluoro-5-(trifluoromethoxy)phenyl]methyl]-propanamide], the IC50 is 160 nM. In the case of `O=C(NCc1ccc2occc2c1)[C@@H]1CCCN1S(=O)(=O)c1cc2cc(F)ccc2o1` [Example 74, (2S)-N-(benzofuran-5-ylmethyl)-1-(5-fluorobenzofuran-2-yl)sulfonyl-pyrrolidine-2-carboxamide] it was 110 nM; in that of `O=C(NCc1ccc(-c2ccccc2)cc1)[C@@H]1CCCN1S(=O)(=O)c1cc2cc(F)ccc2o1` [Example 76, (2S)-1-(5-fluorobenzofuran-2-yl)sulfonyl-N-[(4-phenylphenyl)methyl]pyrrolidine-2-carboxamide], 47 nM. In the case of `O=C(NCc1cccc(-c2ccccc2)c1)[C@@H]1CCCN1S(=O)(=O)c1cc2cc(F)ccc2o1` [Example 77, (2S)-1-(5-fluorobenzofuran-2-yl)sulfonyl-N-[(3-phenylphenyl)methyl]pyrrolidine-2-carboxamide] it was 15 nM; in that of `O=C(NCc1ccccc1-c1ccccc1)[C@@H]1CCCN1S(=O)(=O)c1cc2cc(F)ccc2o1` [Example 78, (2S)-1-(5-fluorobenzofuran-2-yl)sulfonyl-N-[(2-phenylphenyl)methyl]pyrrolidine-2-carboxamide], 130 nM. As for `O=C(NCc1cccc(-c2ccc(C(F)(F)F)cn2)c1)[C@@H]1CCCN1S(=O)(=O)c1cc2ccccc2o1` [Example 80, (2S)-1-(benzofuran-2-ylsulfonyl)-N-[[3-[5-(trifluoromethyl)-2-pyridyl]phenyl]methyl]pyrrolidine-2-carboxamide], the figure is 1.2 nM; as for `O=C(NCc1cc(-c2ccc(C(F)(F)F)cc2)ncn1)[C@@H]1CCCN1S(=O)(=O)c1cc2ccccc2o1` [Example 84, (2S)-1-(benzofuran-2-ylsulfonyl)-N-[[6-[4-(trifluoromethyl)phenyl]pyrimidin-4-yl]methyl]pyrrolidine-2-carboxamide], 1.2 nM; as for `O=C(NCc1cncc(-c2ccc(C(F)(F)F)nc2)c1)[C@@H]1CCCN1S(=O)(=O)c1cc2ccccc2o1` [Example 86, (2S)-1-(benzofuran-2-ylsulfonyl)-N-[[5-[6-(trifluoromethyl)-3-pyridyl]-3-pyridyl]methyl]pyrrolidine-2-carboxamide], 20 nM. Take `O=C(NCc1cccc(-c2ccc(C(F)(F)F)nc2)c1)[C@@H]1CCCN1S(=O)(=O)c1cc2cc(F)ccc2o1` [Example 88, (2S)-1-(5-fluorobenzofuran-2-yl)sulfonyl-N-[[3-[6-(trifluoromethyl)-3-pyridyl]phenyl]methyl]pyrrolidine-2-carboxamide]: the IC50 is 0.41 nM.
